“And” between values parts separate entries of the source, which are not always exact repeats. Equal values may be shown once.
biological target: T1, AaegOR15 (Aedes aegypti, UniProt A0A6B9QIR2); experiment: Two-electrode voltage clamp of Xenopus laevis oocytes expressing AaegOR15/Orco (blends, unitary compounds, concentration-response); type: cell-based; settings: unitary compounds of Alcohols 2; individual oocytes 1-10 (replicates)
T1 sequence (A0A6B9QIR2 1-390): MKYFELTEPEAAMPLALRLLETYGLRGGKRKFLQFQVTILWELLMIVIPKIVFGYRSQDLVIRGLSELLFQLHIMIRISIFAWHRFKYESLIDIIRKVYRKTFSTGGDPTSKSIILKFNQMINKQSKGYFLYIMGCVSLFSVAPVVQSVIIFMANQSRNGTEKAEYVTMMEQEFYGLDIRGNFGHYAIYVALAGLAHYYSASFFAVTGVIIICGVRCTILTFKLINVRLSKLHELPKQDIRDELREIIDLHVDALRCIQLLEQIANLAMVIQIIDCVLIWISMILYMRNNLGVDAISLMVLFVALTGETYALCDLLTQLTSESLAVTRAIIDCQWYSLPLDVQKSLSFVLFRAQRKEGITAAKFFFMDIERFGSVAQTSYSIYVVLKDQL
T1 sequence (Q178U6 1-478 partner): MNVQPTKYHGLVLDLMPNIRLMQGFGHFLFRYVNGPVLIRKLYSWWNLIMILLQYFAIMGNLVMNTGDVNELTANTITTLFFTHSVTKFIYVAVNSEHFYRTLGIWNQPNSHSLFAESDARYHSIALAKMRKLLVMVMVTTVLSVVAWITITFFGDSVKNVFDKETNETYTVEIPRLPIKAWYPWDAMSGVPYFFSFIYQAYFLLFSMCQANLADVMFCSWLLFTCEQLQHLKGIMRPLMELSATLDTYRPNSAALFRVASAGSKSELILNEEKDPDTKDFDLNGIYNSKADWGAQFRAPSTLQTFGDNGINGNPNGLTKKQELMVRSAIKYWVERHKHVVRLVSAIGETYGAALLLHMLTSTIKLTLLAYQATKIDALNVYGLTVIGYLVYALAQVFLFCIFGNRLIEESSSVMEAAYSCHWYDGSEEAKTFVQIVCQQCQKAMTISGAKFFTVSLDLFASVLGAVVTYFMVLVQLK
From the text: (§1) The coding regions of ten AaegOR genes of interest (S3 File) and AaegOrco were synthesized by Twist Bioscience (San Francisco, CA, USA) and cloned into the pENTR plasmid. The Gateway LR directional cloning system (Invitrogen Corp., Carlsbad, CA, USA) was utilized to subclone AaegOR coding regions into the pSP64t-RFA oocyte expression plasmid. Plasmids were purified using the GeneJet Plasmid Miniprep Kit (ThermoFisher Scientific, Waltham, MA, USA). Purified plasmids were sequenced in both directions to confirm coding regions.
(§2) Chemical compounds (S6 File) used in the deorphanization of AaegORs were purchased from Acros Organics (Morris, NJ, USA), Alfa Aesar (Ward Hill, MA, USA), and ThermoFisher Scientific (Waltham, MA, USA) at the highest purity available. Compounds were stored as 1M stocks in 100% DMSO. Serial dilutions of each compound were prepared in 10% DMSO and blended by chemical class.
(§3) pSP64t-RFA: AaegOR clones were linearized using Xbal, and cRNAs were synthesized using the mMESSAGE mMACHINE ® SP6 kit (Life Technologies, Carlsbad, CA, USA). Xenopus laevis stage V-VII oocytes purchased from Xenopus1 (Dexter, MI, USA) were stored at 18°C in Incubation medium (ND96 96 with 5% dialyzed horse serum, 50μg/mL gentamycin, 100μg/mL streptomycin, 100μg/mL penicillin, and 550μg/mL sodium pyruvate). 30nL of cRNA was injected into multiple oocytes using a microinjection syringe pump (World Precision Instruments, Sarasota, FL, USA) maintained at 18°C for 48–72 hrs. Odorant blends were perfused across individual oocytes for 10–15 seconds, held at a resting membrane potential of -80 mV using an OC-725C oocyte clamp (Warner Instruments, LLC, Hamden, CT, USA). Induced currents were measured indirectly using the two-electrode voltage clamp technique (TEVC). Following each stimulus, currents were allowed to return to baseline before further stimulation. Data was captured using the Digidata 1550 B digitizer and PClamp10 software (Molecular Devices, San Jose, CA, USA). Concentration-response curves were generated by perfusing unitary odorants over oocytes at increasing concentrations from [10^-3M] to [10^-9M]. Data were analyzed using GraphPad Prism 8 (GraphPad Software Inc., La Jolla, CA, USA). At least two biological replicates were conducted at each concentration and for each compound. Data for at least seven oocytes responding to each compound was analyzed (S7 File).

SMILES	Raw data (Responses in nA), compounds of blend Alcohols 2
OC1CCCCC1 [cyclohexanol]	5.0 nA and 10.0 nA and 30.0 nA and 55.0 nA (2×) and 0.0 nA and 40.0 nA (2×) and 80.0 nA and 35.0 nA
CCC/C=C/C=O [trans-2-hexenal]	0.0 nA and 15.0 nA and 30.0 nA (2×) and 10.0 nA and 40.0 nA (2×) and 50.0 nA (2×) and 60.0 nA

biological target: T2, AaegOR11 (Aedes aegypti, UniProt Q16PN4); experiment: Two-electrode voltage clamp of Xenopus laevis oocytes expressing AaegOR11/Orco (blends, unitary compounds, concentration-response); type: cell-based; settings: 1e-6 M; oocytes 1-9
T2 sequence (Q16PN4 1-420): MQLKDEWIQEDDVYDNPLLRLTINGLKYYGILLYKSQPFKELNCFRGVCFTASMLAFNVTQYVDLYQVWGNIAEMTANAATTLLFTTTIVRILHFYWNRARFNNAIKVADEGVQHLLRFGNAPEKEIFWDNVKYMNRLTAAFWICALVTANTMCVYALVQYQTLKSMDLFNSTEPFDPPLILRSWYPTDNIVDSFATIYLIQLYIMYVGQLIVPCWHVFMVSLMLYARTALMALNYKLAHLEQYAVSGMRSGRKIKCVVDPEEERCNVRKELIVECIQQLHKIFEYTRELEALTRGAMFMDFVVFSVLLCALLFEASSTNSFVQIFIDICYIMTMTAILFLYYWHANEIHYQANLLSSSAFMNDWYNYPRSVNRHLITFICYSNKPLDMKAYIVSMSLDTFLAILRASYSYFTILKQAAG
T2 sequence (Q178U6 1-478 partner): T1 sequence (Q178U6 1-478 partner)
From the text: as §1, §2, §3

SMILES	Raw Data (Responses in nA), concentration-response [nA]
OC1CCCC2CCCCC12 (stereo not drawn) [cis-decahydro-1-napthol, cis-Decahydro-1-napthol]	10.0

same assay, conditions: 5e-6 M; oocytes 1-9

SMILES	Raw Data (Responses in nA), concentration-response
OC1CCCC2CCCCC12 (stereo not drawn) [cis-decahydro-1-napthol, cis-Decahydro-1-napthol]	15.0 nA and 10.0 nA and 20.0 nA

same assay, conditions: 1e-5 M; oocytes 1-9

SMILES	Raw Data (Responses in nA), concentration-response
OC1CCCC2CCCCC12 (stereo not drawn) [cis-decahydro-1-napthol, cis-Decahydro-1-napthol]	15.0 nA and 10.0 nA

same assay, conditions: 0.0005 M; oocytes 1-9

SMILES	Raw Data (Responses in nA), concentration-response
OC1CCCC2CCCCC12 (stereo not drawn) [cis-decahydro-1-napthol, cis-Decahydro-1-napthol]	90.0 nA and 60.0 nA and 100.0 nA and 50.0 nA and 65.0 nA

same assay, conditions: 0.001 M; oocytes 1-9

SMILES	Raw Data (Responses in nA), concentration-response
OC1CCCC2CCCCC12 (stereo not drawn) [cis-decahydro-1-napthol, cis-Decahydro-1-napthol]	70.0 nA and 40.0 nA and 80.0 nA and 60.0 nA and 45.0 nA

same assay, conditions: AaegOR11/Orco expressing oocytes, TEVC, concentration-response of normalized current

SMILES	EC50
OC1CCCC2CCCCC12 (stereo not drawn) [cis-decahydro-1-napthol, cis-Decahydro-1-napthol]	~68.4 µM and 68.4 µM

same assay, conditions: AaegOR11/Orco expressing oocytes, TEVC, individual compounds

SMILES	magnitude of response of AaegOR11 to unitary compounds
OC1CCCC2CCCCC12 (stereo not drawn) [cis-decahydro-1-napthol, cis-Decahydro-1-napthol]	greater magnitude of response than (-)-fenchone or (+)-fenchone

same assay, conditions: AaegOR11; secondary ligand identified during the functional characterizations

SMILES	Secondary Ligand
CC12CCC(C1)C(C)(C)C2=O (stereo not shown) [fenchone]	fenchone

same assay, conditions: individual oocytes 1-9 (replicates)

SMILES	Raw data (Responses in nA), unitary compounds of blend Terpenes 3
OC1CCCC2CCCCC12 (stereo not drawn) [cis-decahydro-1-napthol, cis-Decahydro-1-napthol]	70 nA and 100 nA and 30 nA (2×) and 40 nA (2×) and 85 nA and 150 nA and 110 nA

same assay, conditions: six further oocytes in columns without head (fenchone comparison with cis-Decahydro-1-napthol)

SMILES	Raw data (Responses in nA), unitary compounds, additional oocytes [nA]
OC1CCCC2CCCCC12 (stereo not drawn) [cis-decahydro-1-napthol, cis-Decahydro-1-napthol]	20

biological target: T3, AaegOR8 (Aedes aegypti, UniProt Q16MN0); experiment: Two-electrode voltage clamp of Xenopus laevis oocytes expressing AaegOR8/Orco (blends, unitary compounds, concentration-response); type: cell-based; settings: Alcohols 2 unitary compounds; oocyte 1
T3 sequence (Q16MN0 32-422): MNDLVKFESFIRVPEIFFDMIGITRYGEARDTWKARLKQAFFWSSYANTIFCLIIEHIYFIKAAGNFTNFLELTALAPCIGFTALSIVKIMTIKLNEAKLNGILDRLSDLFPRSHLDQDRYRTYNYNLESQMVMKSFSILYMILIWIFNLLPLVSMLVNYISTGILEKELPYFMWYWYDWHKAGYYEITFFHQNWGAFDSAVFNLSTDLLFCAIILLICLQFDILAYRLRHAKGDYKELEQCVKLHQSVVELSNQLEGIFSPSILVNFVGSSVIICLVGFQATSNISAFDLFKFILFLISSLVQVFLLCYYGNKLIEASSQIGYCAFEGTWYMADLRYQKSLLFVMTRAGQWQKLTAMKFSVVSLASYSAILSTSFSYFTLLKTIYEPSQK
T3 sequence (Q178U6 1-478 partner): T1 sequence (Q178U6 1-478 partner)
From the text: as §1, §2, §3

SMILES	Raw data (Responses in nA) Oocyte 1 [nA]
OC1CCCCC1 [cyclohexanol]	0.0
CCC/C=C/C=O [trans-2-hexenal]	0.0

same assay, conditions: Alcohols 2 unitary compounds; oocyte 2

SMILES	Raw data (Responses in nA) Oocyte 2 [nA]
OC1CCCCC1 [cyclohexanol]	0.0
CCC/C=C/C=O [trans-2-hexenal]	0.0

same assay, conditions: Alcohols 2 unitary compounds; oocyte 3

SMILES	Raw data (Responses in nA) Oocyte 3 [nA]
OC1CCCCC1 [cyclohexanol]	0.0
CCC/C=C/C=O [trans-2-hexenal]	0.0

same assay, conditions: Alcohols 2 unitary compounds; oocyte 4

SMILES	Raw data (Responses in nA) Oocyte 4 [nA]
OC1CCCCC1 [cyclohexanol]	0.0
CCC/C=C/C=O [trans-2-hexenal]	0.0

same assay, conditions: Alcohols 2 unitary compounds; oocyte 5

SMILES	Raw data (Responses in nA) Oocyte 5 [nA]
OC1CCCCC1 [cyclohexanol]	0.0
CCC/C=C/C=O [trans-2-hexenal]	0.0

same assay, conditions: Alcohols 2 unitary compounds; oocyte 6

SMILES	Raw data (Responses in nA) Oocyte 6 [nA]
OC1CCCCC1 [cyclohexanol]	0.0
CCC/C=C/C=O [trans-2-hexenal]	0.0

same assay, conditions: Alcohols 2 unitary compounds; oocyte 7

SMILES	Raw data (Responses in nA) Oocyte 7 [nA]
OC1CCCCC1 [cyclohexanol]	0.0
CCC/C=C/C=O [trans-2-hexenal]	0.0

same assay, conditions: Alcohols 2 unitary compounds; oocyte 8

SMILES	Raw data (Responses in nA) Oocyte 8 [nA]
OC1CCCCC1 [cyclohexanol]	0.0
CCC/C=C/C=O [trans-2-hexenal]	0.0

— PMC11073699, “Odorant receptors for floral- and plant-derived volatiles in the yellow fever mosquito, Aedes aegypti (Diptera: Culicidae)” (PLOS ONE, 2024)
